# Values of other authors in patent US6372197B1, “Methods and compositions using norastemizole in combination with leukotriene inhibitors” (Sepracor Inc., priority 1998, dated 2002).
# Where two headings read alike, the source gives them in different places.
# Experiments:
# [1] = system: leukotriene-dependent smooth muscle contractions; conditions: in vitro, human airways
# [2] = in some patients
# [3] = 373 patients
# [4] = system: leukotriene (LTH4, LTC4, LTD4, and LTE4) formation; conditions: in vitro
# [5] = system: LTB4 formation; conditions: ex vivo, several species
# [6] = system: leukotriene-dependent smooth muscle contractions; conditions: in vitro, guinea pig airways
# [7] = in vivo
# [8] = system: contractile activity of three leukotrienes; conditions: in vitro, conducting airway smooth muscle from laboratory animals
# [9] = system: LTD4-induced influx of eosinophils; conditions: in vivo
# [10] = system: contractile activity of three leukotrienes; conditions: in vitro, conducting airway smooth muscle from humans
# [11] = system: LTD4-induced increases in cutaneous vascular permeability; conditions: in vivo
absorption [7],metabolism [7],Compound,inhibition of leukotriene-dependent smooth muscle contractions [1],adverse effects reported [2],efficacy ([3]; 400 mg),efficacy ([3]; 600 mg four times daily),"inhibition of leukotriene (LTH4, LTC4, LTD4, and LTE4) formation [4]",inhibition of LTB4 formation [5],inhibition of leukotriene-dependent smooth muscle contractions [6],antagonism of contractile activity of three leukotrienes [8],inhaled LTD4-induced influx of eosinophils into animal lungs [9],antagonism of contractile activity of three leukotrienes [10],intradermal LTD4-induced increases in cutaneous vascular permeability [11]
–,–,"CC(c1cc2ccccc2s1)N(O)C(N)=O (racemic) [Zileuton, (±)-1-(1-Benso[b]thien-2-ylethyl)-1-hydroxyurea]",inhibits,"headache, pain, asthenia, dyspepsia, nausea, and myalgia",failed to do so,required to provide efficacy,inhibit,inhibitor,inhibits,–,–,–,–
well absorbed,extensively metabolized,COc1ccc(CCN2CCC(Nc3nc4ccccc4n3Cc3ccc(F)cc3)CC2)cc1 [Astemizole],–,–,–,–,–,–,–,–,–,–,–
–,–,"COc1cc(C(=O)NS(=O)(=O)c2ccccc2C)ccc1Cc1cn(C)c2ccc(NC(=O)OC3CCCC3)cc12 [Zafirlukast, 4-(5-cyclopentyloxy-carbonylamino-1-methyl-indol-8-ylmethyl)-3-methoxy-N-o-tolylsulfonylbenzamide]",–,"headache, infection, nausea, diarrhea, pain, asthenia, abdominal pain, dizziness, myalgia, fever, vomiting, SGPT elevation, and dyspepsia",–,–,–,–,–,antagonized,inhibited,antagonized,prevented
